This passage reports IC50 and EC50 results from patent US10344025B2, “GLS1 inhibitors for treating disease” (Board of Regents, The University of Texas System, priority 2014, dated 2019).

The target of experiment [1] is purified recombinant human GAC (GLS1) (Homo sapiens (Human), UniProt O94925). Briefly: GLS1 Enzymatic Activity Assay (dual-coupled enzymatic assay, resorufin/Amplex UltraRed readout).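 Note: glutamate from GAC coupled via glutamate oxidase and peroxidase to resorufin, read as fluorescence (ex 530, em 590 nm) kinetically or at 20 min, four-parameter logistic IC50 fit.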 The experiment is classed as biochemical.
For the next experiment, the system named is A549 cells. Briefly: Proliferation Assay (A549 viability, Cell Titer Fluor, 72 hours). The experiment is classed as cell-based. The conditions noted are these: Homo sapiens, A549, 72 h. How it is done: A549 cells were routinely maintained in RPMI 1640 media (Gibco catalog number 11875-093) supplemented with 10% dialyzed fetal bovine serum using a humidified incubator (37° C., 5% CO2 and ambient O2). In preparation for the viability assay, cells were inoculated into 384-well black CulturPlates (Perkin Elmer) at a density of 1000 cells/well in a volume of 40 uL. Following a 24-hour incubation at 37° C., 5% CO2 and ambient O2, cells were treated with compound (10 uL) in a final DMSO concentration of 0.5% (v/v). The microplates were then incubated for 72 hours (37° C., 5% CO2 and ambient O2). Cell Titer Fluor (Promega) was subsequently added (10 uL of 6× reagent) and mixed for 15 minutes at room temperature. The plates were then incubated for 30 minutes (37° C., 5% CO2 and ambient O2) and fluorescence was subsequently read on the Perkin Elmer Envision plate reader. IC50 values were calculated using a four-parameter logistic curve fit.
Non-limiting examples include the following compounds and pharmaceutically acceptable salts thereof. […] “ND” indicates no data.

Chain of purified recombinant human GAC (GLS1) (O94925 other isoform, or with tags, fused parts or gaps): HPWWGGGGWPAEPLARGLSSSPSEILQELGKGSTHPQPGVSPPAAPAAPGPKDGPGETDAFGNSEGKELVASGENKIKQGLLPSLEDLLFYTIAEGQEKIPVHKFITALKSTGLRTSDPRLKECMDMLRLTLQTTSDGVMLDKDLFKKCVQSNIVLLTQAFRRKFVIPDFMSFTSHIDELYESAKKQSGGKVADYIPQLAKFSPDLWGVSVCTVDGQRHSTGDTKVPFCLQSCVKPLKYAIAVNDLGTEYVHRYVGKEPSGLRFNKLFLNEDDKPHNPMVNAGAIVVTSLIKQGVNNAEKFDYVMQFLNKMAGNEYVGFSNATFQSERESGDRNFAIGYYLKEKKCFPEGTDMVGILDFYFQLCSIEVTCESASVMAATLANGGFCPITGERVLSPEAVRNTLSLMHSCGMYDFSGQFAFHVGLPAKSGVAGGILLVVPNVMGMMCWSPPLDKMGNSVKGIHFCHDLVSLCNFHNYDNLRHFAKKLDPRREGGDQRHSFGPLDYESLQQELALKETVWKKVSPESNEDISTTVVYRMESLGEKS

Turning to `CNC(=O)c1cn(C[C@@H](F)CCc2nnc(C(=O)NCc3cc(C(F)(F)F)ccn3)s2)nn1` (single isomer, unassigned) [Example 220], the IC50 (usually the concentration needed to halve the response being measured) in experiment [1] was in the range of 100 to 500 nM. Also, in the experiment with A549 cells, the EC50 (as a rule, the concentration at which the effect is half-maximal) is 500 to 5000 nM.
For `CNC(=O)c1cn(C[C@H](F)CCc2nnc(C(=O)NCc3cc(C(F)(F)F)ccn3)s2)nn1` (single isomer, unassigned) [Example 221] the same measures were 100 to 500 nM and 100 to 500 nM.
Taken in the same sequence, the figures for `O=C(Cc1cccc(OC(F)(F)F)c1)Nc1nnc(CCCCn2cc(C(=O)NCc3cccnc3)nn2)s1` [Example 1, N-(pyridin-3-ylmethyl)-1-[4-(5-{2-[3-(trifluoromethoxy)phenyl]acetamido}-1,3,4-thiadiazol-2-yl)butyl]-1H-1,2,3-triazole-4-carboxamide] were less than 100 nM and less than 100 nM.
Regarding `CNC(=O)c1cn(CCCCc2nnc(NC(=O)Cc3cccc(OC(F)(F)F)c3)s2)nn1` [Example 2, N-Methyl-1-(4-(5-(2-(3-(trifluoromethoxy)phenyl)acetamido)-1,3,4-thiadiazol-2-yl)butyl)-1H-1,2,3-triazole-4-carboxamide], the IC50 in experiment [1] is less than 100 nM. This compound displayed an EC50 in the experiment on A549 cells of less than 100 nM.
Take `NC(=O)c1cn(CCCCc2nnc(NC(=O)Cc3cccc(OC(F)(F)F)c3)s2)nn1` [Example 3, 1-(4-(5-(2-(3-(Trifluoromethoxy)phenyl)acetamido)-1,3,4-thiadiazol-2-yl)butyl)-1H-1,2,3-triazole-4-carboxamide]: the IC50 in experiment [1] lay in the range of 100 to 500 nM. Further, the EC50 in the experiment with A549 cells was 100 to 500 nM.
`O=C(Cc1ccccc1)Nc1nnc(CCCCCn2cc(C(=O)NCc3ccccc3)nn2)s1` [Example 4, N-Benzyl-1-(5-(5-(2-phenylacetamido)-1,3,4-thiadiazol-2-yl)pentyl)-1H-1,2,3-triazole-4-carboxamide]: in experiment [1], the IC50 is 100 to 500 nM. This compound came in with an EC50 in the experiment on A549 cells of 100 to 500 nM.
Take `COCCNC(=O)c1nnc(CCCCc2ccc(NC(=O)Cc3cccc(OC(F)(F)F)c3)nn2)s1` [Example 6, N-(2-methoxyethyl)-5-(4-(6-(2-(3-(trifluoromethoxy)phenyl)acetamido)pyridazin-3-yl)butyl)-1,3,4-thiadiazole-2-carboxamide]: the IC50 in experiment [1] is less than 100 nM. Also, in the experiment with A549 cells, the EC50 is less than 100 nM.
For the compound `COCCNC(=O)c1nnc(CCCCn2cc(C(=O)NCc3cccc(C(F)(F)F)c3)nn2)s1` [Example 7, N-(2-methoxyethyl)-5-(4-(4-(3-(trifluoromethyl)benzylcarbamoyl)-1H-1,2,3-triazol-1-yl)butyl)-1,3,4-thiadiazole-2-carboxamide], the IC50 in experiment [1] fell in the range of 100 to 500 nM. The compound also returned an EC50 with A549 cells of 100 to 500 nM.
Turning to `O=C(Cc1cccc(OC(F)(F)F)c1)Nc1nnc(CCCCn2cc(C(=O)NCC3CC3)nn2)s1` [Example 11, N-(cyclopropylmethyl)-1-[4-(5-{2-[3-(trifluoromethoxy)phenyl]acetamido}-1,3,4-thiadiazol-2-yl)butyl]-1H-1,2,3-triazole-4-carboxamide], in experiment [1], the IC50 is less than 100 nM. In the experiment on A549 cells, this compound yielded an EC50 of 100 to 500 nM.
For `O=C(Cc1cccc(OC(F)(F)F)c1)Nc1nnc(CCCCn2cc(C(=O)NCC3CCOC3)nn2)s1` (stereo not drawn) [Example 12, N-(oxolan-3-ylmethyl)-1-[4-(5-{2-[3-(trifluoromethoxy)phenyl]acetamido}-1,3,4-thiadiazol-2-yl)butyl]-1H-1,2,3-triazole-4-carboxamide], the IC50 in experiment [1] is less than 100 nM. The EC50 in the experiment on A549 cells was less than 100 nM.
As to `O=C(Cc1ccccc1)Nc1nnc(CCCCn2cc(C(=O)NCCc3ccccc3)nn2)s1` [Example 13, 1-{4-[5-(2-phenylacetamido)-1,3,4-thiadiazol-2-yl]butyl}-N-(2-phenylethyl)-1H-1,2,3-triazole-4-carboxamide], the IC50 in experiment [1] was less than 100 nM. The same compound returned an EC50 in the experiment on A549 cells of 500 to 5000 nM.
For `O=C(Cc1ccccc1)Nc1nnc(CCCCn2cc(C(=O)NCc3ccccc3)nn2)s1` [Example 15, N-benzyl-1-{4-[5-(2-phenylacetamido)-1,3,4-thiadiazol-2-yl]butyl}-1H-1,2,3-triazole-4-carboxamide] the same measures were less than 100 nM and 100 to 500 nM.
For `O=C(Cc1cccc(OC(F)(F)F)c1)Nc1nnc(CCCCn2cc(C(=O)NCc3ccccc3)nn2)s1` [Example 16, N-benzyl-[4-(5-{2-[3-(trifluoromethoxy)phenyl]acetamido}-1,3,4-thiadiazol-2-yl)butyl]-1H-1,2,3-triazole-4-carboxamide], the IC50 in experiment [1] is less than 100 nM. Also, the EC50 in the experiment on A549 cells was less than 100 nM.
With `O=C(Cc1cccc(OC(F)(F)F)c1)Nc1nnc(CCCCn2cc(C(=O)NCCO)nn2)s1` [Example 17, N-(2-hydroxyethyl)-1-[4-(5-{2-[3-(trifluoromethoxy)phenyl]acetamido}-1,3,4-thiadiazol-2-yl)butyl]-1H-1,2,3-triazole-4-carboxamide], the IC50 in experiment [1] was 100 to 500 nM. This compound showed an EC50 in the experiment with A549 cells of 100 to 500 nM.
`CC(C)(NC(=O)c1cn(CCCCc2nnc(NC(=O)Cc3cccc(OC(F)(F)F)c3)s2)nn1)c1ccccc1` [Example 18, N-(2-phenylpropan-2-yl)-1-[4-(5-{2-[3-(trifluoromethoxy)phenyl]acetamido}-1,3,4-thiadiazol-2-yl)butyl]-1H-1,2,3-triazole-4-carboxamide]: the IC50 in experiment [1] is 100 to 500 nM. The same compound displayed an EC50 with A549 cells of 100 to 500 nM.
Regarding `O=C(Cc1cccc(OC(F)(F)F)c1)Nc1nnc(CCCCn2cc(C(=O)NCc3ccccn3)nn2)s1` [Example 19, N-(pyridin-2-ylmethyl)-1-[4-(5-{2-[3-(trifluoromethoxy)phenyl]acetamido}-1,3,4-thiadiazol-2-yl)butyl]-1H-1,2,3-triazole-4-carboxamide], the IC50 in experiment [1] is less than 100 nM. In the experiment with A549 cells, this compound returned an EC50 of less than 100 nM.
Regarding `O=C(Cc1cccc(OC(F)(F)F)c1)Nc1nnc(CCCCn2cc(C(=O)NCc3cccc(OC(F)(F)F)c3)nn2)s1` [Example 20, 1-[4-(5-{2-[3-(trifluoromethoxy)phenyl]acetamido}-1,3,4-thiadiazol-2-yl)butyl}-N-{[3-(trifluoromethoxy)phenyl]methyl}-1H-1,2,3-triazole-4-carboxamide], the IC50 in experiment [1] is less than 100 nM. In the experiment on A549 cells, this compound had an EC50 of less than 100 nM.
On to `O=C(Cc1cccc(OC(F)(F)F)c1)Nc1nnc(CCCCn2cc(C(=O)N[C@@H](CO)c3ccccc3)nn2)s1` [Example 21, N-[(1R)-2-hydroxy-1-phenylethyl]-1-[4-(5-{2-[3-(trifluoromethoxy)phenyl]acetamido}-1,3,4-thiadiazol-2-yl)butyl]-1H-1,2,3-triazole-4-carboxamide], for which the half-maximal inhibitory concentration (IC50) in experiment [1] is less than 100 nM. Further, the EC50 in the experiment with A549 cells was in the range of 100 to 500 nM.
Taken in the same sequence, the figures for `COc1ccc(CNC(=O)c2cn(CCCCc3nnc(NC(=O)Cc4cccc(OC(F)(F)F)c4)s3)nn2)c(OC)c1` [Example 22, N-[(2,4-dimethoxyphenyl)methyl]-1-[4-(5-{2-[3-(trifluoromethoxy)phenyl]acetamido}-1,3,4-thiadiazol-2-yl)butyl]-1H-1,2,3-triazole-4-carboxamide] were less than 100 nM and 100 to 500 nM.
`O=C(Cc1cccc(OC(F)(F)F)c1)Nc1nnc(CCCCn2cc(C(=O)N[C@H](CO)c3ccccc3)nn2)s1` [Example 23, N-[(1S)-2-hydroxy-1-phenylethyl]-1-[4-(5-{2-[3-(trifluoromethoxy)phenyl]acetamido}-1,3,4-thiadiazol-2-yl)butyl]-1H-1,2,3-triazole-4-carboxamide]: the IC50 in experiment [1] is less than 100 nM. For the same compound, the EC50 with A549 cells fell in the range of 100 to 500 nM.
Taken in the same sequence, the figures for `CC(C)CNC(=O)c1cn(CCCCc2ccc(NC(=O)Cc3ccccc3)nn2)nn1` [Example 24, N-(2-methylpropyl)-1-{4-[6-(2-phenylacetamido)pyridazin-3-yl]butyl}-1H-1,2,3-triazole-4-carboxamide] were less than 100 nM and less than 100 nM.
For `O=C(NCCc1ccccc1)c1nnc(CCCCc2ccc(NC(=O)[C@@H](O)c3ccccc3)nn2)s1` [Example 25, 5-(4-{6-[(2S)-2-hydroxy-2-phenylacetamido]pyridazin-3-yl}butyl)-N-(2-phenylethyl)-1,3,4-thiadiazole-2-carboxamide] the same measures were less than 100 nM and 100 to 500 nM.
For `O=C(Cc1ccccc1)Nc1ccc(CCCCc2nnc(C(=O)NCCc3ccccc3)s2)nn1` [Example 26, 5-{4-[6-(2-phenylacetamido)pyridazin-3-yl]butyl}-N-(2-phenylethyl)-1,3,4-thiadiazole-2-carboxamide] the same measures were less than 100 nM and less than 100 nM.
On to `O=C(Cc1cccnc1)Nc1ccc(CCCCc2nnc(C(=O)NCCc3ccccc3)s2)nn1` [Example 27], for which the IC50 in experiment [1] is less than 100 nM. In addition, the EC50 in the experiment on A549 cells is less than 100 nM.
`O=C(Cc1ccccc1)Nc1ccc(CCCCc2nnc(C(=O)NCc3ccccc3)s2)nn1` [Example 28, N-benzyl-5-{4-[6-(2-phenylacetamido)pyridazin-3-yl]butyl}-1,3,4-thiadiazole-2-carboxamide]: in experiment [1], the IC50 was less than 100 nM. The compound also yielded an EC50 in the experiment with A549 cells of 100 to 500 nM.
For `O=C(NCc1ccccc1)c1nnc(CCCCc2ccc(NC(=O)[C@@H](O)c3ccccc3)nn2)s1` [Example 29, N-benzyl-5-(4-{6-[(2S)-2-hydroxy-2-phenylacetamido]pyridazin-3-yl}butyl)-1,3,4-thiadiazole-2-carboxamide] the same measures were less than 100 nM and less than 100 nM.
Taken in the same sequence, the figures for `O=C(Cc1cccnc1)Nc1ccc(CCCCc2nnc(C(=O)NCc3ccccc3)s2)nn1` [Example 30, N-benzyl-5-(4-{6-[2-(pyridin-3-yl)acetamido]pyridazin-3-yl}butyl)-1,3,4-thiadiazole-2-carboxamide] were less than 100 nM and less than 100 nM.
